# Laboratory results: ChEMBL document CHEMBL1141984, “Carbonic anhydrase inhibitors. Inhibition of the transmembrane isozyme XII with sulfonamides-a new target for the design of antitumor and antiglaucoma drugs?” (Bioorg Med Chem Lett, 2005)
# Molecular target: Carbonic anhydrase 12 (Homo sapiens, UniProt O43570)
# Sequence (O43570 whole entry): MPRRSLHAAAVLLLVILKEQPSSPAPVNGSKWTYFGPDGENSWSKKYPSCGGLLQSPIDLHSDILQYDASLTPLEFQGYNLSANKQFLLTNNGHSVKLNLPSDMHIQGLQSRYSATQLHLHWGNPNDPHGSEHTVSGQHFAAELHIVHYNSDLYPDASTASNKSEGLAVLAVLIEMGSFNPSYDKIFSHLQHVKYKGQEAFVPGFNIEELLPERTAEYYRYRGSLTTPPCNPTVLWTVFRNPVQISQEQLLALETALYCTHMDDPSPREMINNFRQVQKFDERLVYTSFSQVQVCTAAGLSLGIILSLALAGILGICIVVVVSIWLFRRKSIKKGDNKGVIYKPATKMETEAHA
structure (smiles),measurement,value
Nc1ccc(S(=O)(=O)Nc2nnc(S(N)(=O)=O)s2)cc1,Ki,85 nM
Nc1ccc(S(=O)(=O)NCCc2ccc(S(N)(=O)=O)cc2)cc1,Ki,4.5 nM
Nc1ccc(S(N)(=O)=O)cc1Cl,Ki,3.1 nM
Nc1ccc(S(N)(=O)=O)cc1F,Ki,1.1 nM
NS(=O)(=O)c1nnc(-c2ccccc2Cl)s1,Ki,36 nM
Nc1ccc(S(N)(=O)=O)cc1Br,Ki,20 nM
Nc1nccc(Nc2ccc(S(N)(=O)=O)cc2)n1,Ki,3.4 nM
Nc1ccc(S(N)(=O)=O)cc1I,Ki,11 nM
NS(=O)(=O)c1ccc(CO)cc1,Ki,220 nM
NS(=O)(=O)c1ccc(CCO)cc1,Ki,55 nM
Nc1ccccc1S(N)(=O)=O,Ki,0.85 nM
NNc1ccccc1S(N)(=O)=O,Ki,58 nM
NCc1ccc(S(N)(=O)=O)cc1 [MAFENIDE],Ki,0.3 nM
NS(=O)(=O)c1ccc(C(=O)O)cc1 [CARZENIDE],Ki,34 nM
N[S+]([O-])c1ccc(S(=O)(=O)Nc2cccc3c(Cl)c[nH]c23)cc1 (stereo not given),Ki,3.4 nM
Cc1ccc(S(N)(=O)=O)cc1 [P-TOLUENESULFONAMIDE],Ki,1.8 nM
CNc1ccc(S(N)(=O)=O)cc1,Ki,37 nM
CN(N)c1ccc(S(N)(=O)=O)cc1,Ki,11 nM
Cn1nc(S(N)(=O)=O)sc1=N,Ki,4 nM
Nc1ccc(S(=O)(=O)NCc2ccc(S(N)(=O)=O)cc2)cc1,Ki,3.5 nM
